{
  "source": "patent US10137106B2",
  "about": "“Compositions and methods to treat niemann-pick disease” (Blanchette Rockefeller Neurosciences Institute, Inc., priority 2014, dated 2018)",
  "format_in_all_cases": "cell-based",
  "key": {"PKC α [1]": {"molecular_target": "T1, PKC α (Homo sapiens, UniProt P17252)", "experiment": "PKC α activation in SH-SY5Y cells (cytosol/membrane fractions, isoform-specific antibodies)", "settings": "0.27 nM, 5-60 min (FIG. 3)", "description": "Three independent experiments were performed for each sample.\n(§1) The homogenate was centrifuged at 100,000×g for 15 min at 4° C. to obtain the cytosolic fraction (supernatant) and membrane (pellet). […] The separated protein was then transferred to a nitrocellulose membrane."}, "PKC ε [2]": {"molecular_target": "T2, PKC ε (Homo sapiens, UniProt Q02156)", "T2 sequence (Q02156 1-737)": "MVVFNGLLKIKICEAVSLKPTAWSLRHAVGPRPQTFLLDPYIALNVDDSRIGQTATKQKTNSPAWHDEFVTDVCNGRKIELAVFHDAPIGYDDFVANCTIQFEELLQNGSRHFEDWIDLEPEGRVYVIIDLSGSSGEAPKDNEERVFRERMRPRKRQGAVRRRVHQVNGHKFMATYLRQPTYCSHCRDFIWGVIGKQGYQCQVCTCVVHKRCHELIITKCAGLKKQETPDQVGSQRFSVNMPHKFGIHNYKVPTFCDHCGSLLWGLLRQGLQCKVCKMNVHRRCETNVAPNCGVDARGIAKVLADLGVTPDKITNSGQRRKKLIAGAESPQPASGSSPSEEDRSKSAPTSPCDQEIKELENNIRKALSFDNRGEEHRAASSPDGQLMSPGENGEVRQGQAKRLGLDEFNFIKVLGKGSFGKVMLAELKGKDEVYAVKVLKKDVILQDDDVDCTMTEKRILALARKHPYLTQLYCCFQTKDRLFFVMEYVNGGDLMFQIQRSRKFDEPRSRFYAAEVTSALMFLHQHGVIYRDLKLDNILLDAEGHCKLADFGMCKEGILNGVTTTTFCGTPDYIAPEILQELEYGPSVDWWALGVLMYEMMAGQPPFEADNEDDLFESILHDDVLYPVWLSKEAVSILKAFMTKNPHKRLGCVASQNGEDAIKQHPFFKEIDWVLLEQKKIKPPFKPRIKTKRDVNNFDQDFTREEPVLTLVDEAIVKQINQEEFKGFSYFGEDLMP", "experiment": "PKC ε activation in SH-SY5Y cells (cytosol/membrane fractions, isoform-specific antibodies)", "settings": "0.27 nM, 5-60 min (FIG. 3)", "description": "PKC isozyme activation by bryostatin-1 at 0.27 nM in SH-SY5Y cells was evaluated. SH-SY5Y cells are human-derived cell line and are often used as in vitro models of neuronal function and differentiation. Cells were treated with bryostatin-1 (0.27 nM) for 0, 5, 15, 30 and 60 min. Samples were fractionated into cytosol and membrane fractions and analyzed with PKC isoform-specific antibodies. Three independent experiments were performed for each sample.\nCell culture and treatments: Human SH-SY5Y neuroblastoma cells (ATCC) were cultured in 45% F12K, 45% DMEM and 10% FBS.\nCell lysis and Western blot analysis: Cells were harvested in homogenizing buffer (HB) containing 10 mM Tris-Cl (pH 7.4), 1 mM PMSF (phenylmethylsulfonylfluoride), 1 mM EGTA, 1 mM EDTA, 50 mM NaF and 20 μM leupeptin, and were lysed by sonication. The homogenate was centrifuged at 100,000×g for 15 min at 4° C. to obtain the cytosolic fraction (supernatant) and membrane (pellet). […] Protein concentration was measured using the Coomassie Plus (Bradford) Protein Assay kit (Pierce, Rockford, Ill., USA). Following quantification, 20 μg of protein from each sample was subjected to SDS-PAGE analysis in a 4-20% gradient Tris-Glycine polyacrylamide gel (Invitrogen, Carlsbad, Calif., USA). […] The blot was imaged in a ImageQuant RT-ECL (GE Life Sciences, Piscataway, N.J.) and densitometric quantification was performed using IMAL software. […]"}, "PKC ε [3]": {"molecular_target": "T2, PKC ε", "experiment": "PKC ε activation (membrane translocation, immunoblot) in primary human neurons", "design": "host or cells: primary human cortical neurons", "description": "PKC isozyme activation by bryostatin-1 at various concentrations in primary human neurons was evaluated. One month old primary human neurons were treated with 0 nM, 0.060 nM, 0.125 nM, 0.25 nM, 0.5 nM and 1.0 nM bryostatin 1 for 24 hr. Neurons were separated into soluble and membrane fractions and immunoblotted against PKC α and PKC ε. PKC activation was measured as the percentage of total protein in the membrane and reported as percentage of control. PKC staining levels were measured densitometrically. Data are represented as mean±SE of three independent experiments (Students t-test, *P<0.05 and **P<0.005).\nPKC isozyme activation by bryostatin-1 at 0.25 nM in primary human neurons was evaluated. One month old primary human neurons were treated with ethanol (C), bryostatin 1 (0.25 nM) for 1 hr, 4 hr and 24 hr. Neurons were separated into soluble (S) and membrane (P) fractions and immunoblotted against PKC α, PKC ε and PKC δ. PKC activation was measured as the percentage of total protein in the membrane and reported as percentage of control. PKC staining levels were measured densitometrically.\nCulture of primary human cortical neurons: Human primary neurons (ScienCell Research Laboratories, Carlsbad, Calif., USA) were plated on poly-L-lysine coated plates and were maintained in neuronal medium (ScienCell Research Laboratories, Carlsbad, Calif., USA) supplemented with the neuronal growth supplement (NGS, ScienCell Research Laboratories, Carlsbad, Calif., USA). For maintenance of neurons, half of the media was changed every 3 days. Fresh activators were added with every media change.\nCell lysis and Western blot analysis: Cells were harvested in homogenizing buffer (HB) containing 10 mM Tris-Cl (pH 7.4), 1 mM PMSF (phenylmethylsulfonylfluoride), 1 mM EGTA, 1 mM EDTA, 50 mM NaF and 20 μM leupeptin, and were lysed by sonication. The homogenate was centrifuged at 100,000×g for 15 min at 4° C. to obtain the cytosolic fraction (supernatant) and membrane (pellet). The pellet was resuspended in the HB by sonication. Protein concentration was measured using the Coomassie Plus (Bradford) Protein Assay kit (Pierce, Rockford, Ill., USA). Following quantification, 20 μg of protein from each sample was subjected to SDS-PAGE analysis in a 4-20% gradient Tris-Glycine polyacrylamide gel (Invitrogen, Carlsbad, Calif., USA). The separated protein was then transferred to a nitrocellulose membrane. The membrane was blocked with BSA and incubated with primary antibody overnight at 4° C. […] The blot was imaged in a ImageQuant RT-ECL (GE Life Sciences, Piscataway, N.J.) and densitometric quantification was performed using IMAL software. For quantifying expression of a protein, the densitometric value for the protein of interest was normalized against beta-actin (loading control)."}, "PKC α [4]": {"molecular_target": "T1, PKC α", "experiment": "PKC α activation (membrane translocation, immunoblot) in primary human neurons", "design": "host or cells: primary human cortical neurons", "description": "as §1"}},
  "data": [
    {"smiles": "CCC/C=C/C=C/C(=O)O[C@H]1/C(=C/C(=O)OC)C[C@H]2C[C@H]([C@@H](C)O)OC(=O)C[C@H](O)C[C@@H]3C[C@H](OC(C)=O)C(C)(C)[C@](O)(C[C@@H]4C/C(=C/C(=O)OC)C[C@H](/C=C/C(C)(C)[C@]1(O)O2)O4)O3", "note": "[bryostatin-1]", "values": [
      {"measurement": "PKC α activation", "setting": "PKC α [1]", "result": "activated both PKC ε and PKC α"},
      {"measurement": "PKC ε activation", "setting": "PKC ε [2]", "result": "activated both PKC ε and PKC α"},
      {"measurement": "PKC-ε activation, time course", "setting": "PKC ε [3]; 0.25 nM, 1 hr, 4 hr and 24 hr (FIG. 2B)", "result": "induced PKC-ε activation"},
      {"measurement": "PKC ε activation (percentage of total protein in the membrane, percentage of control)", "setting": "PKC ε [3]; 0.060-1.0 nM, 24 hr (FIG. 1)", "result": "activated both PKC ε and PKC α"},
      {"measurement": "PKC ε activation at about 1 nM", "setting": "PKC ε [3]; about 1 nM, 24 hr", "result": "potent activation of both PKC ε and PKC α"},
      {"measurement": "PKC ε activation at low concentrations", "setting": "PKC ε [3]; low concentrations, 24 hr", "result": "potent PKC ε activation"},
      {"measurement": "PKC α activation (percentage of total protein in the membrane, percentage of control)", "setting": "PKC α [4]; 0.060-1.0 nM, 24 hr (FIG. 1)", "result": "activated both PKC ε and PKC α"},
      {"measurement": "PKC α activation at about 1 nM", "setting": "PKC α [4]; about 1 nM, 24 hr", "result": "potent activation of both PKC ε and PKC α"}
    ]}
  ]
}
